According to article PMC6072878, “Brasilianoids A–F, New Meroterpenoids From the Sponge-Associated Fungus Penicillium brasilianum” (Frontiers in Chemistry, 2018):
Read-outs that look alike come from different tables or passages of the source.

Key:
caspase-14 = assay: Expression of caspase-14 in HaCaT cells (qRT-PCR); format: cell-based; details: HaCaT cells, 20, 10, 5 μM, 72 h, dose dependent
Method: (§1) HaCaT cells were cultured with DMEM in 6-well plate at 1 × 10^5 cells/well for 24 h, then treated with 20, 10, 5 μM of compounds 1–7 for 72 h. Total RNA of HaCaT cells were extracted using RNA Miniprep kit (Biomiga) according to the manufacturer's instruction. Then total RNA was reverse transcribed using PrimeScript RT reagent Kit (Takara, Dalian, China). PCR amplification was performed on an StepOne Plus real time PCR system (Applied Biosystems, Foster City, CA) using the SYBR Green Master Mix (Applied Biosystems, Foster City, CA). All experiments were performed in triplicate, and the relative levels of assayed mRNAs were calculated with the delta–delta CT method using ACTIN expressions as endogenous control, and normalized to non-treated control. […]
(§2) delta‒delta CT method using lamivudine expressions as positive control, and normalized to non-treated control.
(§3) 9. Assay for protective effects on skin barrier functions in in vitro
(§4) HaCaT cells were cultured with DMEM in 6-well plate at 1×10^5 cells/well for 24 h, then treated with 20, 10, 5 µM of compounds 1‒8 for 72 h. […]
(§5) All experiments were performed in triplicate, and the relative levels of assayed mRNAs were calculated with the delta‒delta CT method using ACTIN expressions as endogenous control, and normalized to non-treated control.

[1] = Cytotoxic activity toward tumor cell line A549; format: cell-based; details: human, A549 tumor cells
[2] = test system: NO production in LPS-induced RAW 264.7 macrophages; assay: Inhibition of LPS induced NO production in RAW264.7 macrophages (Griess reagent); format: cell-based, mouse
Method: All compounds were assayed by measuring the inhibitory effects on NO production induced by LPS in mouse macrophage RAW 264.7 cells. The RAW 264.7 cells were seeded in each well of a 96-well plate at a concentration of 5 × 10^5 cells/ml in DMEM medium containing 10% fetal bovine serum, 2 mmol/l glutamine, 100 U/ml penicillin, and 100 μg/ml streptomycin. After incubation at 37°C in a humidified atmosphere of 5% CO2 air for 12 h, cells were treated with LPS (1 μg/ml) and compounds ([…], and compound was dissolved in DMSO to dilute until the final DMSO concentration <0.1%, v/v), then incubation for 24 h at 37°C. NO production was determined by measuring the quantity of nitrite in the culture medium by the Griess reagent. Aminoguanidine was selected as a positive control. A 50 μl of the supernatant of culture medium was mixed with 100 μl of the Griess reagent. Using nitrite to generate a standard curve, nitrite production was measured by a microplate reader at 540 nm. Cell viability was examined by the MTT method (Wu et al., [2016]). The compounds with inhibitory rate more than 50% at a dose of 50 μg/ml were further detected in the gradient concentrations to calculate IC50 values. […]
(§6) 7. Assay for inhibition toward nitric oxide production in RAW264.7 macrophages The experiment was conducted according to a literature procedure.1 Murine monocytic RAW264.7 cells grown in 96-well cell culture plates (2 × 10^5 cells/well) and pretreated with serial concentrations of the compounds 1‒8 for 30 min, followed by stimulation with LPS (1 μg/mL) under a humidified atmosphere with 5% CO2 at 37°C. After 24 h, the NO production of the supernatant was determined by adding the 100 μL of Griess reagent. Subsequently, the MTT
(§7) [3-(4,5-dimethylthiazol-2-yl)-2,5-diphenyltetrazolium bromide] reduction2 was used to evaluate the cell viability, and results were expressed as the mean value of triplicate determinations. The positive control was aminoguanidine.2 […]

HaCaT cells = assay: Protection against UVB-induced cell damage in HaCaT cells (MTT assay); format: cell-based; details: Homo sapiens, HaCaT, light or radiation study, 24 h, read-out: cell viability after UVB irradiation
Method: HaCaT cells were seeded at 5 × 10^5 cells per well in 6-well plates and incubated under starvation conditions for 24 h using serum-free MEM. HaCaT cells were exposed to UVB irradiation (UVB lamp: SUV-1000, Sigma-China) at a dose of 30 mJ/cm^2. After UVB irradiation, DMEM medium containing 1 (20 μM) or epigallocatechin gallate (20 μM) was added and the cells were incubated for 24 h, and then the MTT assay was performed.

[3] = Cytotoxic activity toward tumor cell line SMMC7721; format: cell-based; details: human, SMMC7721 tumor cells
filaggrin = assay: Expression of filaggrin in HaCaT cells (qRT-PCR); format: cell-based; details: HaCaT cells, 20, 10, 5 μM, 72 h, dose dependent
Method: as §1, §2, §3, §4, §5

[4] = Cell viability of RAW264.7 macrophages (MTT method); format: cell-based, mouse; details: mouse
Method: as §6, §7

[5] = Cytotoxic activity toward tumor cell line U937; format: cell-based; details: human, U937 tumor cells
[6] = test system: HBV virus in HepG2.2.15 cells; assay: In vitro anti-HBV effects (HBV DNA, real time PCR); format: cell-based; details: 10 μM
Method: HepAD38 cells were cultured with DMEM in 48-well plate at 1 × 10^5 cells/well for 24 h, then treated with 10 μM of each compound for 72 h. After 4 days, the cells were washed with precooled PBS for 2 times. HBV progeny DNA of HepAD38 cells were extracted using QIAamp DNA Blood Mini kit (Biomiga) according to the manufacturer's instruction. Total DNA was reversely transcribed using PrimeScript RT reagent Kit (Takara, Dalian, China). PCR amplification was performed on an StepOne Plus real time PCR system (Applied Biosystems, Foster City, CA) using the SYBR Green Master Mix (Applied Biosystems, Foster City, CA). All experiments were performed in triplicate, and the relative levels of assayed HBV DNA were calculated with the delta–delta CT method using lamivudine as a positive control, and normalized to non-treated control. […]
8. Assay for in vitro anti-HBV effects
HepG2. 2. 15 cells were cultured with DMEM in 48-well plate at 1×10^5 cells/well for 24 h, then treated with 10 µM of compounds for 72 h. At d 4, these cells were washed 2 times with precooled PBS, and treated with 10 µM of compounds for 72 h.
HBV progeny DNA of HepG2. 2. 15 cells were extracted using QIAamp DNA Blood Mini kit (Biomiga) according to the manufacturer's instruction. Then total DNA was reverse transcribed using PrimeScript RT reagent Kit (Takara, Dalian, China). The primers were designed and synthesized by Takara, and the sequences of the primers […]
PCR amplification was performed on an StepOne Plus real time PCR system (Applied Biosystems, Foster City, CA) using the SYBR Green Master Mix (Applied Biosystems, Foster City, CA). All experiments were performed in triplicate, and the relative levels of assayed HBV DNA were calculated with the […]
delta‒delta CT method using lamivudine expressions as positive control, and normalized to non-treated control. […]
(Takara, Dalian, China). The primers were designed and synthesized by Takara, the […]
performed on an StepOne Plus real time PCR system (Applied Biosystems, Foster City, CA) using the SYBR Green Master Mix (Applied Biosystems, Foster City, CA). […]

RAW264.7 macrophages = assay: Cell viability of RAW264.7 macrophages (MTT method); format: cell-based, mouse; details: RAW264.7, MTT; Table 3; read-out: CC50 (μM) Cytotoxicity
Method: as §6, §7

Structure (SMILES)	expression of caspase-14 (caspase-14)	IC50 [1] [µM]	IC50 ([2]; Mus musculus, RAW264.7, read-out: IC50 (M), 50% inhibitory concentration) [M]	viability at 20 µM (HaCaT cells) [%]	IC50 [3] [µM]	expression of filaggrin (filaggrin)	CC50 at 24 h ([4]; RAW264.7, MTT, Table 3, read-out: CC50 (μM) Cytotoxicity) [µM]	CC50 at 24 h ([4]; Table S9 of the supplement, read-out: CC50 (M), 50% cytotoxic concentration) [µM]	IC50 [5] [µM]	NO inhibition % (50 μM) ([2]; 50 μM, LPS 1 μg/ml, 24 h) [%]	IC50 ([2]; LPS 1 μg/ml, 24 h, Table 3, read-out: IC50 (μM) NO) [M]	inhibition toward NO production (in words) ([2]; LPS-induced RAW 264.7 macrophages)	inhibitory rate of DNA expression of the HBV virus [6] [%]	CC50 (RAW264.7 macrophages) [µM]
C=C1[C@@]2(C)C[C@H]3[C@]4(C)[C@H](O)[C@@H]5C[C@@](C)(OC5=O)[C@H]4CC[C@]3(C)[C@]1(C(=O)OC)C(=O)[C@@](C)(O)C2=O [Compound 1, methyl (1R, 2S, 5R, 5aS, 7aS, 8R, 10S, 12R, 13aR, 13bS)-1, 10-dihydroxy-5,7a,10,12,13b-pentamethyl-14-methylene-3,9,11-trioxotetradecahydro-2,5:8,12-dimethanocycloocta[3,4]benzo[1,2-c]oxepine-8(5H)-carboxylate]	significantly stimulated	> 10	> 5e-05	77	> 10	significantly stimulated	> 100	> 50	> 10	–	–	–	–	–
C=C1C2(C)CC3C4(C)C=CC(=O)OC(C)(C)C4CCC3(C)C13C(=O)OC(C)C3(O)C2=O [Compound 3, (5aS, 5bS, 7R, 8aR, 9R, 11aR, 11bS, 13aS)-8a-hydroxy-1,1,5a, 7,9,11b-hexamethyl-14-methylene-5a,5b,6,7,8a,9,11b,12,13,13a-decahydro-1H,11H-7, 11a-methanofuro[3″,4″:3′,4′]cyclohepta[1′,2′:3,4]benzo[1,2-c]oxepine-3,8,11-trione]	–	–	–	–	–	–	–	–	–	65	3.38e-05 ± 3.13e-06	moderate inhibition	25	> 100
